Assay results taken from patent US11142526B2, “Spirocycle compounds and methods of making and using same” (H. Lundbeck A/S, priority 2017, dated 2021).
Read-outs that look alike come from different tables or passages of the source.

What was measured:
MAGL [1] = target: T1, MAGL (Mus musculus (Mouse), UniProt O35678); assay: Mouse brain proteomes from inhibitor treated mice (oral gavage, brain MAGL activity 4 h after administration); format: in vivo; details: 5 mg/kg oral gavage
Experimental: Preparation of Mouse Brain Proteomes from Inhibitor Treated Mice.
Inhibitors were administered to wild-type C57B1/6J by oral gavage in a vehicle of polyethylene glycol.

MAGL [2] = target: T1, MAGL; assay: In vitro competitive activity-based protein profiling, mouse brain proteome; format: biochemical; details: 1 uM; mouse
MAGL [3] = target: MAGL (Homo sapiens (Human), UniProt Q99685); assay: In vitro competitive activity-based protein profiling (gel-based, FP-Rh or HT-01 probe); format: biochemical; details: for IC50: read-out: MAGL Human PC3 (IC50)
MAGL (Homo sapiens (Human), UniProt Q99685), sequence (Q99685 whole entry): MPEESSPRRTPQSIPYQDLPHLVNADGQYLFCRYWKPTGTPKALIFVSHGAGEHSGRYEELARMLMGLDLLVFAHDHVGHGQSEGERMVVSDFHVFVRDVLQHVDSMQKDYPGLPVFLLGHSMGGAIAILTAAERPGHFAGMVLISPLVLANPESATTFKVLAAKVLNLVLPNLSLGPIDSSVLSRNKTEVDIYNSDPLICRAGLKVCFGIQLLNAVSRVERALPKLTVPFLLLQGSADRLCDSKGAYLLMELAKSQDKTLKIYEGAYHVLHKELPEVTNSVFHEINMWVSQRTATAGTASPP
Experimental: In Vitro Competitive Activity-Based Protein Profiling.
Proteomes (human prefrontal cortex or cell membrane fractions) (50 μL, 1.0 mg/mL total protein concentration) were preincubated with varying concentrations of inhibitors at 37° C. After 30 min, FP-Rh or HT-01 (1.0 μL, 50 μM in DMSO) was added and the mixture was incubated for another 30 min at room temperature. Reactions were quenched with SDS loading buffer (15 μL—4×) and run on SDS-PAGE.

[4] = human PC3, read-out: MAGL % Inhibition at 1 μM (human PC3)
[5] = human PFC (prefrontal cortex), read-out: MAGL % Inhibition at 1 μM (human PFC)

T1 sequence (O35678 whole entry): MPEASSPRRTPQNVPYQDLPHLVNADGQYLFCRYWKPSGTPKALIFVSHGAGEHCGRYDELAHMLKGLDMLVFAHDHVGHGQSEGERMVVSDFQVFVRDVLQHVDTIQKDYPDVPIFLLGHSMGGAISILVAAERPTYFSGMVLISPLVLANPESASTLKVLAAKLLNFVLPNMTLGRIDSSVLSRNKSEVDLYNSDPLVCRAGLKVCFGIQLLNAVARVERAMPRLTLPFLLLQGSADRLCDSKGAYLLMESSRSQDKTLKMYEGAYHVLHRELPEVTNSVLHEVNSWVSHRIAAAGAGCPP

Row | Compound | inhibition at 1 µM (MAGL [2]) [%] | inhibition at 1 µM (MAGL [3]; [4]) [%] | inhibition at 1 µM (MAGL [3]; [5]) [%] | IC50 (MAGL [3]; human PC3) [nM] | MAGL % Inhibition at 5 mg/kg (Mouse) (MAGL [1])
1 | O=C(OC(C(F)(F)F)C(F)(F)F)N1CCC2(CCCN2C(=O)c2cn3c(n2)CN(CC2CC2)CC3)CC1 [Example 154, 1,1,1,3,3,3-Hexafluoropropan-2-yl 1-(7-(cyclopropylmethyl)-5,6,7,8-tetrahydroimidazo[1,2-a]pyrazine-2-carbonyl)-1,8-diazaspiro[4.5] decane-8-carboxylate] | > 75 | > 75 | > 75 | < 100 | ### (% inhibition is greater than or equal to 75%)
2 | O=C(OC(C(F)(F)F)C(F)(F)F)N1CCC2(CCCN2C(=O)c2cn3c(n2)CN(C2COC2)CC3)CC1 [Example 161, 1.1,1,3,3,3-Hexafluoropropan-2-yl 1-(7-(oxetan-3-yl)-5,6,7,8-tetrahydroimidazo [1,2-a]pyrazine-2-carbonyl)-1,8-diazaspiro[4.5] decane-8-carboxylate] | > 75 | > 75 | – | < 100 | ## (% inhibition is less than 75% and greater than 25%)
3 | CC1(NC(=O)c2cn3c(n2)CN(C2CC2)CC3)CCN(C(=O)OC(C(F)(F)F)C(F)(F)F)CC1 [Example 174, 1,1,1,3,3,3-Hexafluoropropan-2-yl 4-(7-cyclopropyl-5,6,7,8-tetrahydroimidazo[1,2-a]pyrazine-2-carboxamido)-4-methylpiperidine-1-carboxylate] | > 75 | > 75 | > 75 | < 100 | ### (% inhibition is greater than or equal to 75%)
4 | CC1(NC(=O)c2cn3c(n2)CN(C(=O)C2(C)CC2)CC3)CCN(C(=O)OC(C(F)(F)F)C(F)(F)F)CC1 [Example 190, 1,1,1,3,3,3-Hexafluoropropan-2-yl 4-methyl-4-(7-(1-methylcyclopropane-1-carbonyl)-5,6,7,8-tetrahydroimidazo[1,2-a]pyrazine-2-carboxamido) piperidine-1-carboxylate] | > 75 | > 75 | – | < 100 | # (% inhibition less or equal to 25%)
5 | CC1(NC(=O)c2cn3c(n2)CN(C(=O)C(C)(C)C)CC3)CCN(C(=O)OC(C(F)(F)F)C(F)(F)F)CC1 [Example 191, 1,1,1,3,3,3-Hexafluoropropan-2-yl 4-methyl-4-(7-pivaloyl-5,6,7,8-tetrahydroimidazo[1,2-a]pyrazine-2-carboxamido) piperidine-1-carboxylate] | > 75 | > 75 | – | < 100 | # (% inhibition less or equal to 25%)
6 | CC1(NC(=O)c2nnc3n2CCN(C2CC2)C3)CCN(C(=O)OC(C(F)(F)F)C(F)(F)F)CC1 [Example 204, 1,1,1,3,3,3-Hexafluoropropan-2-yl 4-(7-cyclopropyl-5,6,7,8-tetrahydro-[1,2,4]triazolo[4,3-a]pyrazine-3-carboxamido)-4-methylpiperidine-1-carboxylate] | > 75 | > 75 | > 75 | < 100 | ### (% inhibition is greater than or equal to 75%)
7 | CC(C)(O)CN1CCn2c(nnc2C(=O)NC2(C)CCN(C(=O)OC(C(F)(F)F)C(F)(F)F)CC2)C1 [Example 206, 1,1,1,3,3,3-Hexafluoropropan-2-yl 4-(7-(2-hydroxy-2-methylpropyl)-5,6,7,8-tetrahydro-[1,2,4]triazolo[4,3-a]pyrazine-3-carboxamido)-4-methylpiperidine-1-carboxylate] | > 75 | > 75 | > 75 | < 100 | ### (% inhibition is greater than or equal to 75%)
8 | CC1(NC(=O)c2nnc3n2CCN(C2COC2)C3)CCN(C(=O)OC(C(F)(F)F)C(F)(F)F)CC1 [Example 207, 1,1,1,3,3,3-Hexafluoropropan-2-yl 4-methyl-4-(7-(oxetan-3-yl)-5,6,7,8-tetrahydro-[1,2,4]triazolo [4,3-a]pyrazine-3-carboxamido) piperidine-1-carboxylate] | > 75 | > 75 | > 75 | < 100 | ### (% inhibition is greater than or equal to 75%)
9 | CC1(NC(=O)c2nnc3n2CCN(C2CCOC2)C3)CCN(C(=O)OC(C(F)(F)F)C(F)(F)F)CC1 (stereo not shown) [Example 208, 1,1,1,3,3,3-Hexafluoropropan-2-yl 4-methyl-4-(7-(THF-3-yl)-5,6,7,8-tetrahydro-[1,2,4]triazolo [4,3-a]pyrazine-3-carboxamido) piperidine-1-carboxylate] | > 75 | > 75 | > 75 | < 100 | ### (% inhibition is greater than or equal to 75%)

Further lines, with some results ahead:

Row | inhibition at 1 µM (MAGL [2]) [%] | inhibition at 1 µM (MAGL [3]; [4]) [%] | inhibition at 1 µM (MAGL [3]; [5]) [%] | IC50 (MAGL [3]; human PC3) [nM] | Compound | MAGL % Inhibition at 5 mg/kg (Mouse) (MAGL [1])
10 | > 75 | > 75 | > 75 | < 100 | O=C(OC(C(F)(F)F)C(F)(F)F)N1CCC2(CCCN2C(=O)c2cc3n(n2)CCN(C2CC2)C3)CC1 [Example 155, 1,1,1,3,3,3-Hexafluoropropan-2-yl 1-(5-cyclopropyl-4,5,6,7-tetrahydropyrazolo [1,5-a]pyrazine-2-carbonyl)-1,8-diazaspiro[4.5] decane-8-carboxylate] | ### (% inhibition is greater than or equal to 75%)
11 | > 75 | > 75 | > 75 | < 100 | COCC(C)N1CCn2cc(C(=O)N3CCCC34CCN(C(=O)OC(C(F)(F)F)C(F)(F)F)CC4)nc2C1 (stereo not shown) [Example 169, 1.1,1,3,3,3-Hexafluoropropan-2-yl 1-(7-(1-methoxypropan-2-yl)-5,6,7,8-tetrahydroimidazo [1,2-a]pyrazine-2-carbonyl)-1,8-diazaspiro[4.5] decane-8-carboxylate] | # (% inhibition less or equal to 25%)
12 | > 75 | > 75 | > 75 | < 100 | CC1(CN2CCn3cc(C(=O)N4CCCC45CCN(C(=O)OC(C(F)(F)F)C(F)(F)F)CC5)nc3C2)COC1 [Example 170, 1,1,1,3,3,3-Hexafluoropropan-2-yl 1-(7-((3-methyloxetan-3-yl)methyl)-5,6,7,8-tetrahydroimidazo [1,2-a]pyrazine-2-carbonyl)-1,8-diazaspiro[4.5] decane-8-carboxylate] | # (% inhibition less or equal to 25%)
13 | > 75 | > 75 | > 75 | < 100 | CN(C(=O)C1(c2cnccn2)CC1)C1(C)CCN(C(=O)OC(C(F)(F)F)C(F)(F)F)CC1 [Example 176, 1,1,1,3,3,3-Hexafluoropropan-2-yl 4-methyl-4-(N-methyl-1-(pyrazin-2-yl)cyclopropane-1-carboxamido) piperidine-1-carboxylate] | # (% inhibition less or equal to 25%)
14 | > 75 | > 75 | > 75 | < 100 | O=C(OC(C(F)(F)F)C(F)(F)F)N1CCC2(CCCN2C(=O)C2(c3cccnn3)CC2)CC1 [Example 179, 1,1,1,3,3,3-Hexafluoropropan-2-yl 1-(1-(pyridazin-3-yl)cyclopropane-1-carbonyl)-1,8-diazaspiro [4.5]decane-8-carboxylate] | ## (% inhibition is less than 75% and greater than 25%)
15 | > 75 | > 75 | > 75 | < 100 | O=C(OC(C(F)(F)F)C(F)(F)F)N1CCC2(CCCN2C(=O)C2(c3ncc(F)cn3)CC2)CC1 [Example 180, 1,1,1,3,3,3-Hexafluoropropan-2-yl 1-(1-(5-fluoropyrimidin-2-yl)cyclopropane-1-carbonyl)-1,8-diazaspiro[4.5] decane-8-carboxylate] | ### (% inhibition is greater than or equal to 75%)
16 | > 75 | > 75 | > 75 | < 100 | CC(C)Oc1cnc(C2(C(=O)N3CCCC34CCN(C(=O)OC(C(F)(F)F)C(F)(F)F)CC4)CC2)nc1 [Example 194, 1,1,1,3,3,3-Hexafluoropropan-2-yl 1-(1-(5-isopropoxypyrimidin-2-yl)cyclopropane-1-carbonyl)-1,8-diazaspiro [4.5]decane-8-carboxylate] | ### (% inhibition is greater than or equal to 75%)
17 | > 75 | > 75 | > 75 | < 100 | COc1nccc(C2(C(=O)N3CCCC34CCN(C(=O)OC(C(F)(F)F)C(F)(F)F)CC4)CC2)n1 [Example 200, 1,1,1,3,3,3-Hexafluoropropan-2-yl 1-(1-(2-methoxypyrimidin-4-yl)cyclopropane-1-carbonyl)-1,8-diazaspiro [4.5]decane-8-carboxylate] | ### (% inhibition is greater than or equal to 75%)
